TGI data for 9 compounds are collected here from PubChem BioAssay (NCI).

What all share (assay): growth of human tumour cells (NCI), 48 h
The test system of assay [1] is MALME-3M melanoma.
In assay [2] the test system is RXF 393 renal.
In assay [3] the test system is UO-31 renal.
The test system of assay [4] is UACC-257 melanoma.
Assay [5] concerns HCT-15 colon.
Assay [6] concerns OVCAR-3 ovarian.
Assay [7] has as its system SNB-75 CNS.
In assay [8] the test system is HT29 colon.
For assay [9], the system named is M14 melanoma.
Assay [10] relates to SK-MEL-28 melanoma.
The test system of assay [11] is KM12 colon.
Assay [12] has as its system OVCAR-4 ovarian.
The subject of assay [13] is 786-0 renal.
Assay [14] has as its system LOX IMVI melanoma.
Assay [15] concerns HCT-116 colon.
The test system of assay [16] is SF-268 CNS.
The subject of assay [17] is BT-549 breast.
In assay [18] the test system is UACC-62 melanoma.
In assay [19] the test system is T-47D breast.

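48-hour exposure; five concentrations; linearly interpolated endpoints. At the TGI there is no net growth.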

Take `C/C(=N\Nc1ccccc1Br)c1cccc(/C(C)=N/Nc2ccccc2Br)n1`: the TGI in assay [1] is over 100 µM; in [2] it was 42.4 µM; in [3] it was over 100 µM; in assay [4] it was over 100 µM; in assay [5], over 100 µM; in assay [6], over 100 µM. For the same compound, the TGI is 36.8 µM in assay [7]; over 100 µM in assay [8]; over 100 µM in assay [9]; over 100 µM in assay [10]; over 100 µM in assay [11]; over 100 µM in [12]. Further, the TGI in [13], in [14], in assay [15], in assay [16] and in assay [17] was over 100 µM throughout.
With `N#Cc1c(-c2ccc(Cl)cc2)c(C#N)c(=O)n(NS(=O)(=O)c2ccccc2)c1S`, the TGI in assay [1] was over 100 µM; in assay [18], 58.3 µM; in assay [2], over 100 µM; in [3], 45.3 µM; in [4] it was over 100 µM; in assay [5], 49.6 µM. Besides, the TGI in assay [6] was over 100 µM; in [7], over 100 µM; in assay [9], over 100 µM; in assay [12], over 100 µM; in assay [13], 34.6 µM; in assay [14], 50.6 µM. The TGI in assay [15] is 91.2 µM; in assay [17], 66.1 µM.
Turning to `Cc1ccccc1NC(=O)C(=O)CC(=O)c1sc(Nc2ccccc2[N+](=O)[O-])nc1C`, the TGI in assay [18] is 48 µM; in assay [2] it was 89.1 µM; in [3], 32.4 µM; in assay [4] it was over 100 µM; in [5] it was over 100 µM; in assay [6], 79.5 µM. Besides, the TGI in assay [8] was over 100 µM; in assay [9] it was over 100 µM; in [10] it was 82.8 µM; in [11], over 100 µM; in [12] it was 52.9 µM; in [13], 48.3 µM. For the same compound, the TGI in assay [14] was over 100 µM; in assay [15], over 100 µM; in assay [16], over 100 µM; in assay [19] it was 68.1 µM; in assay [17], 79 µM.
Take `NC1=NNC2(C(=O)N1)c1ccccc1-c1ccccc12`: the TGI in assay [1], in assay [2], in [3], in assay [5], in [6] and in [7] was over 10 µM in each case. Besides, the TGI in assay [9], in [10], in [11], in assay [13], in assay [14] and in [15] was over 10 µM each time. In addition, the TGI in assay [16] and in [19] was over 10 µM throughout.
Regarding `CN=CN(C)c1c2ccccc2nc2ccccc12`, the TGI in [1] was over 100 µM; in assay [18], over 100 µM; in assay [2], over 100 µM; in assay [3] it was 28.1 µM; in [4] it was over 100 µM; in assay [5], over 100 µM. In addition, the TGI in assay [6], in assay [7], in assay [8], in assay [9], in assay [10] and in assay [11] was over 100 µM in each case. In addition, the TGI in assay [12], in assay [13], in assay [14], in assay [15], in [16] and in assay [19] was over 100 µM throughout.
In the case of `CN(C(=O)c1ccc(Cl)cc1)C(=S)N1CCN(c2ccccn2)CC1`, the TGI in assay [1], in assay [18], in assay [2], in assay [3], in assay [4] and in [5] was over 100 µM throughout. Also, the TGI in [6], in [7], in [8], in assay [9], in assay [10] and in assay [11] was over 100 µM throughout. Also, the TGI in assay [12], in [13], in assay [14], in assay [15] and in assay [16] was over 100 µM throughout.
As for `C#CCOCn1ccc(=O)[nH]c1=O`, the TGI in [1], in assay [18], in assay [3], in assay [4], in assay [5] and in assay [7] was over 100 µM throughout. Besides, the TGI in assay [8], in assay [9], in assay [10], in assay [11], in assay [12] and in assay [13] was over 100 µM in each case. For the same compound, the TGI in assay [14], in assay [15], in assay [16] and in assay [19] was over 100 µM in each case.
As to `COC(=O)[C@@H](O)[C@]1(C(=O)OC)C2O[C@@H](OC)[C@@H]1CCCCCC[C@H]2O`, the TGI in assay [1], in assay [18], in assay [2], in assay [3], in [4] and in [5] was over 100 µM throughout. The TGI in assay [6], in [7], in [8], in [9], in [10] and in assay [11] was over 100 µM each time. The TGI in assay [12], in [13], in [14], in [15], in [16] and in [17] was over 100 µM each time.
On to `C=CC(C)(C)C(=C)C(=O)N(C)c1ccccc1I`, for which the TGI in assay [18], in assay [2], in assay [3], in [4], in assay [5] and in assay [6] was over 100 µM in each case. The TGI in [7], in [8], in [9], in assay [10], in [11] and in [12] was over 100 µM in each case. Besides, the TGI in [13], in [14], in [15], in assay [16] and in assay [19] was over 100 µM in each case.
